Experimental findings from patent US10781215B2, “Heterobicyclic compounds useful as modulators of IL-12, IL-23 and/or IFNα responses” (BRISTOL-MYERS SQUIBB COMPANY, priority 2016, dated 2020) are described below.

Molecules are shown by their SMILES.

The subject of assay [1] is IL-23 stimulated Kit225 T cells (STAT-dependent luciferase reporter). In words: Kit225 T cell assay, IL-23 stimulated STAT-dependent luciferase reporter. As to conditions: 20 ng/mL human recombinant IL-23, 5-6 hours. The format is cell-based. On the procedure:
(§1) Kit225 T cells with a stably-integrated STAT-dependent luciferase reporter were plated in RPMI (Gibco) containing 10% heat-inactivated FBS (Gibco) and 100 U/mL PenStrep (Gibco). The cells were then stimulated with either 20 ng/mL human recombinant IL-23 or 200 U/mL human recombinant IFNα (PBL InterferonSource) for 5-6 hours. Luciferase expression was measured using the STEADY-GLO® Luciferase Assay System (Promega) according to the manufacturer's instructions. Inhibition data were calculated by comparison to no inhibitor control wells for 0% inhibition and non-stimulated control wells for 100% inhibition. Dose response curves were generated to determine the concentration required to inhibit 50% of cellular response (IC50) as derived by non-linear regression analysis.

Assay [2] concerns IFNα stimulated Kit225 T cells (STAT-dependent luciferase reporter). Description: Kit225 T cell assay, IFNα stimulated STAT-dependent luciferase reporter. As to conditions: 200 U/mL human recombinant IFNα, 5-6 hours. The format is cell-based. On the procedure: as §1
The target of assay [3] is T1, recombinant human His-tagged Tyk2 pseudokinase domain (His-TVMV-Tyk2, 575-869) (Homo sapiens, UniProt P29597).
T1 construct: made in house
T1 sequence (P29597 with tags, fused parts or gaps): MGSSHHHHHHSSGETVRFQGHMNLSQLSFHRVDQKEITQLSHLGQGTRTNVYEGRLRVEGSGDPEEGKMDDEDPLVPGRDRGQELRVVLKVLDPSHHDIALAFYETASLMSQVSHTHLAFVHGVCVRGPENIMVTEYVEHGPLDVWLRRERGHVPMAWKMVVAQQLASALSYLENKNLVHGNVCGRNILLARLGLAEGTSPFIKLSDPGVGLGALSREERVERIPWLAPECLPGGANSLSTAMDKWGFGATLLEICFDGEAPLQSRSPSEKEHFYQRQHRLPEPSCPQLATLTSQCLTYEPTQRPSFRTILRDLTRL
In words: Probe displacement assay (HTRF format). The format is binding. As to conditions: fluorescein labeled probe, Tyk2 pseudokinase domain 0.5 nM. As to the method:
To 10 μL 26 nM fluorescein labeled probe plus 0.2 nM anti-6×His-terbium labeled antibody (Medarex, labeled by Cisbio) in assay buffer (20 mM Hepes pH 7.5, 150 mM NaCl, 10 mM MgCl2, 2 mM DTT, 50 μg/mL BSA, and 0.015% Brij 35) was added 10 μL recombinant human His-tagged Tyk2 pseudokinase domain (His-TVMV-Tyk2, 575-869) to a final concentration of 0.5 nM. After 1 h at room temperature, the HTRF signal (ratio of fluorescence intensities at emission wavelengths for fluorescein acceptor at 520 nm and terbium donor at 495 nm) was measured on an Envision Plate Reader. Percent inhibition was calculated by comparison to a control without inhibitor and a control without protein. Dose response curves were generated to determine the concentration required for inhibiting 50% of the HTRF signal (EC50).

The target of assay [4] is T2, human Tyk2 (amino acids 575-869, His-tagged) (Homo sapiens, UniProt P29597).
T2 construct: made in house
T2 sequence (P29597 with tags, fused parts or gaps): as above
In words: Probe displacement assay (SPA format). The format is binding. Particulars: radiolabeled probe 40 nM, Tyk2 2.5 nM. On the procedure:
Probe Displacement Assay (SPA Format) The probe displacement assay is conducted as follows: In a […], test compounds along with recombinantly expressed His-tagged protein corresponding to amino acids 575-869 of human Tyk2 (sequence shown below) at 2.5 nM, 40 nM ((R)—N-(1-(3-(8-methyl-5-(methylamino)-8H-imidazo [4,5-d]thiazolo [5,4-b]pyridin-2-yl)phenyl)ethyl)-2-([^3H]methylsulfonyl)benzamide) (preparation described below) and 80 μg/mL Copper His-Tag scintillation proximity assay beads (Perkin Elmer, Catalog # RPNQ0095) in 50 mM HEPES, pH 7.5, containing 100 μg/mL bovine serum albumin and 5% DMSO were incubated for 30 minutes at room temperature. The amount of radiolabeled probe (preparation described below) bound to Tyk2 was then quantified by scintillation counting, and the inhibition by the test compound calculated by comparison to wells either with no inhibitor (0% inhibition) or without Tyk2 (100% inhibition). The EC50 value is defined as the concentration of test compound required to inhibit radiolabeled probe binding by 50%. Probe Displacement Assay (HTRF Format)

Turning to `Cc1nc2c(Nc3ncccc3S(C)(=O)=O)cc(NC(=O)C3CC3)nc2[nH]1` [Example 47, N-{7-[(3-methanesulfonylpyridin-2-yl)amino]-2-methyl-3H-imidazo[4,5-b]pyridin-5-yl}cyclopropanecarboxamide], the values for the half-inhibitory concentration (IC50) in assay [1] and in assay [2] were 698 nM and 403 nM, respectively. Also, in assay [3], the EC50 turned out to be 0.4 nM.

For the compound `Cc1nc2c(Nc3ccccc3S(C)(=O)=O)cc(Nc3cc(C)c(C#N)c(C)n3)nc2[nH]1` [Example 28, 6-({7-[(2-methanesulfonylphenyl)amino]-2-methyl-3H-imidazo[4,5-b]pyridin-5-yl}amino)-2,4-dimethylpyridine-3-carbonitrile], the 50% inhibitory concentration (IC50) in assay [1] is 70 nM; in assay [2], 53 nM. Further, the 50% effective concentration (EC50) in assay [4] was determined as 9 nM.

Regarding `COc1c(Nc2cc(NC(=O)C3CC3)nc3[nH]c(C)nc23)cccc1-c1ncn(C)n1` [Example 39, N-(7-{[2-methoxy-3-(1-methyl-1H-1,2,4-triazol-3-yl)phenyl]amino}-2-methyl-3H-imidazo[4,5-b]pyridin-5-yl)cyclopropanecarboxamide], the IC50 in assay [1] stood at 3010 nM; in assay [2], 2720 nM. In assay [4], this compound came in with a half-maximal effective concentration (EC50) of 17 nM.

For `Cc1nc2c(Nc3ccccc3S(C)(=O)=O)cc(Nc3ccc(C#N)cn3)nc2[nH]1` [Example 13, 6-({7-[(2-methanesulfonylphenyl)amino]-2-methyl-3H-imidazo[4,5-b]pyridin-5-yl}amino)pyridine-3-carbonitrile], the results for the half-maximal inhibitory concentration (IC50) in assay [1] and in assay [2] were 185 nM and 190 nM, respectively. Further, in assay [4], the concentration giving a half-maximal response (EC50) was found to be 9 nM.

As for `COc1cnc(Nc2cc(Nc3ccccc3S(C)(=O)=O)c3nc(C)[nH]c3n2)cn1` [Example 6, 7-N-(2-methanesulfonylphenyl)-5-N-(5-methoxypyrazin-2-yl)-2-methyl-3H-imidazo[4,5-b]pyridine-5,7-diamine], the concentration for half-maximal inhibition (IC50) in assay [1] came out at 447 nM; in assay [2] it was 371 nM. In assay [4], this compound gave a concentration for a half-maximal effect (EC50) of 37 nM.

For the compound `COc1ccc(Nc2cc(Nc3ccccc3S(C)(=O)=O)c3nc(C)[nH]c3n2)nc1` [Example 16, 7-N-(2-methanesulfonylphenyl)-5-N-(5-methoxypyridin-2-yl)-2-methyl-3H-imidazo[4,5-b]pyridine-5,7-diamine], the IC50 in assay [1] amounted to 90 nM; in assay [2], 128 nM. In assay [4], this compound yielded an EC50 of 14 nM.

Consider `Cc1nc2c(Nc3ccccc3S(C)(=O)=O)cc(Nc3ccc(C#N)c(C)n3)nc2[nH]1` [Example 25, 6-({7-[(2-methanesulfonylphenyl)amino]-2-methyl-3H-imidazo[4,5-b]pyridin-5-yl}amino)-2-methylpyridine-3-carbonitrile], for which the IC50 in assay [1] amounted to 205 nM; in assay [2] it was 126 nM. Moreover, in assay [4], the EC50 was found to be 7 nM.

With `Cc1cccc(Nc2cc(Nc3ccccc3S(C)(=O)=O)c3nc(C)[nH]c3n2)n1` [Example 29, 7-N-(2-methanesulfonylphenyl)-2-methyl-5-N-(6-methylpyridin-2-yl)-3H-imidazo[4,5-b]pyridine-5,7-diamine], the half-maximal inhibitory concentration (IC50) was 21 nM in assay [1] and 35 nM in assay [2]. In assay [4], this compound registered an EC50 of 6 nM.

For `Cc1nc2c(Nc3ccccc3S(C)(=O)=O)cc(NC(=O)C3CC3)nc2[nH]1` [Example 7, N-{7-[(2-methanesulfonylphenyl)amino]-2-methyl-3H-imidazo[4,5-b]pyridin-5-yl}cyclopropanecarboxamide], the IC50 was determined as 718 nM in assay [1] and 285 nM in assay [2]. The same compound came in with a 50% effective concentration (EC50) in assay [4] of 14 nM.

Take `Cc1nc2c(Nc3ccccc3S(C)(=O)=O)cc(Nc3cccc(C(F)(F)F)n3)nc2[nH]1` [Example 23, 7-N-(2-methanesulfonylphenyl)-2-methyl-5-N-[6-(trifluoromethyl)pyridin-2-yl]-3H-imidazo[4,5-b]pyridine-5,7-diamine]: the results for the concentration for half-maximal inhibition (IC50) in assay [1] and in assay [2] were 81 nM and 44 nM, respectively. In assay [4], this compound registered an EC50 of 5 nM.

Regarding `Cc1nc2c(Nc3ccccc3S(C)(=O)=O)cc(Nc3ccc(C(N)=O)cn3)nc2[nH]1` [Example 14, 6-({7-[(2-methanesulfonylphenyl)amino]-2-methyl-3H-imidazo[4,5-b]pyridin-5-yl}amino)pyridine-3-carboxamide], the IC50 in assay [1] was 7860 nM; in assay [2] it was 6080 nM. For the same compound, a half-maximal response in assay [4] (EC50) required 11 nM.

Consider `Cc1nc2c(Nc3ccccc3C(N)=O)cc(Nc3ccc(F)cn3)nc2[nH]1` [Example 32, 2-({5-[(5-fluoropyridin-2-yl)amino]-2-methyl-3H-imidazo[4,5-b]pyridin-7-yl}amino)benzamide], for which the values for the IC50 in assay [1] and in assay [2] were 3310 nM and 1160 nM, respectively. In addition, the EC50 in assay [4] worked out at 167 nM.

`COc1c(Nc2cc(Nc3ccc(F)cn3)nc3[nH]c(C)nc23)cccc1-c1ncn(C)n1` [Example 40, 5-N-(5-fluoropyridin-2-yl)-7-N-[2-methoxy-3-(1-methyl-1H-1,2,4-triazol-3-yl)phenyl]-2-methyl-3H-imidazo[4,5-b]pyridine-5,7-diamine]: the IC50 is 738 nM in assay [1] and 1240 nM in assay [2]. In assay [4], this compound showed an EC50 of 38 nM.

Consider `Cc1ccc(Nc2cc(Nc3ccccc3S(C)(=O)=O)c3nc(C)[nH]c3n2)nc1` [Example 21, 7-N-(2-methanesulfonylphenyl)-2-methyl-5-N-(5-methylpyridin-2-yl)-3H-imidazo[4,5-b]pyridine-5,7-diamine], for which the IC50 in assay [1] was 261 nM; in assay [2], 201 nM. Also, a half-maximal response in assay [4] (EC50) required 27 nM.

As to `Cc1nc2c(Nc3ccccc3S(C)(=O)=O)cc(Nc3ccc(F)cn3)nc2[nH]1` [Example 2, N5-(5-fluoropyridin-2-yl)-2-methyl-N7-(2-(methylsulfonyl)phenyl)-3H-imidazo[4,5-b]pyridine-5,7-diamine], the concentration for half-maximal inhibition (IC50) in assay [1] was 162 nM; in assay [2] it was 88 nM. The compound also came in with an EC50 in assay [4] of 13 nM.

In the case of `Cc1nc2c(Nc3ccccc3S(C)(=O)=O)cc(Nc3cc(C#N)ccn3)nc2[nH]1` [Example 3, 2-({7-[(2-methanesulfonylphenyl)amino]-2-methyl-3H-imidazo[4,5-b]pyridin-5-yl}amino)pyridine-4-carbonitrile], the IC50 is 275 nM in assay [1] and 190 nM in assay [2]. In assay [4], this compound yielded an EC50 of 12 nM.

On to `COc1ccccc1Nc1cc(Nc2ccc(F)cn2)nc2[nH]c(C)nc12` [Example 38, 5-N-(5-fluoropyridin-2-yl)-7-N-(2-methoxyphenyl)-2-methyl-3H-imidazo[4,5-b]pyridine-5,7-diamine], for which the IC50 worked out at 8070 nM in assay [1] and 5180 nM in assay [2]. In assay [4], this compound displayed an EC50 of 509 nM.

With `Cc1ccc(Nc2cc(Nc3ccccc3S(C)(=O)=O)c3nc(C)[nH]c3n2)nn1` [Example 11, 7-N-(2-methanesulfonylphenyl)-2-methyl-5-N-(6-methylpyridazin-3-yl)-3H-imidazo[4,5-b]pyridine-5,7-diamine], the concentration for half-maximal inhibition (IC50) in assay [1] stood at 875 nM; in assay [2], 463 nM. Also, in assay [4], the response was half-maximal at 10 nM (EC50).

Turning to `Cc1nc2c(Nc3ccccc3S(C)(=O)=O)cc(Nc3ccc(C(F)(F)F)cn3)nc2[nH]1` [Example 10, 7-N-(2-methanesulfonylphenyl)-2-methyl-5-N-[5-(trifluoromethyl)pyridin-2-yl]-3H-imidazo[4,5-b]pyridine-5,7-diamine], the half-maximal inhibitory concentration (IC50) came out at 143 nM in assay [1] and 190 nM in assay [2]. The EC50 in assay [4] turned out to be 13 nM.

For the compound `Cc1nc2c(Nc3ccccc3S(C)(=O)=O)cc(Nc3ccn4nccc4n3)nc2[nH]1` [Example 27, 7-N-(2-methanesulfonylphenyl)-2-methyl-5-N-{pyrazolo[1,5-a]pyrimidin-5-yl}-3H-imidazo[4,5-b]pyridine-5,7-diamine], the results for the concentration for half-maximal inhibition (IC50) in assay [1] and in assay [2] were 327 nM and 123 nM, respectively. In addition, the response in assay [4] was half-maximal at 4 nM (EC50).
